Data taken from patent publication US20140329903A1, “TREATMENT OF NEURODEGENERATIVE DISEASES” (ACADIA PHARMACEUTICALS INC., priority 2011, published 2014).
Several values for one entry are separate records, joined by “and”; a condition that tells them apart may be missing. Identical values can stand only once. Entries after “also recorded” stand apart in the source; their conditions may differ. Like-named read-outs stand apart in the source and are kept apart here.

Experiments:
[1] = test system: NGFI-B response element, NBRE; experiment: Reporter gene transcription assay pNBRE; assay type: cell-based
Text: (§1) We have enabled assays to detect ligand-induced gene transcription (reporter gene assays) in order to confirm results obtained in BRET2 assays.

[2] = test system: 6-hydroxydopamine (6OHDA) lesions of the substantia nigra pars compacta (SNc); experiment: 6OHDA lesion of the SNc, bexarotene once daily orally after lesion; assay type: in vivo, rats
Experimental: . The endpoints assessed were: • Neuroprotection measured by tyrosine hydroxylase (TH) staining in the substantia nigra (SNc). • Behavioral assessments including rotorod, challenging beam, and spontaneous locomotion
. Following the 28 days of treatment, animals were assessed in 3 tests of coordinated motor function (spontaneous locomotion, rotorod and challenging beam) and then tissue was collected to assess tyrosine hydroxylase immunofluorescence in the substantia nigra. […].
The subjects and surgical procedures to produce lesions were as described above for i.c.v. dosing.
Spontaneous Locomotion, rotorod, and challenging beam tests were conducted as described above for i.c.v. dosing.
Novel object recognition (NOR) was conducted in a novel environment in two phases: sample and test. Subjects were placed into the NOR chamber, where two identical objects were placed. Each rat was allowed to explore for 3 min., and the time spent exploring at each position recorded. After 3 min., each rat was removed from the arena and placed back into its cage. The test phase was conducted 4 hours after the sample phase. During test, one familiar object (seen during sample) and one novel object was placed into the chamber, and each rat was allowed 3 min to explore. The test sessions were recorded on video and scored by an observer blind to each subject's treatment condition. For test data, % of exploration time spent at the novel object was determined and headtwitch assays.
Spontaneous Head Twitch: Subjects were place in a group of 4 animals into a clean holding tub, where they were closely observed for 8 min.
Tyrosine Hydroxylase Fluorescent Immunohistochemisty was conducted as described above for i.c.v. dosing.

RXRE & Nurr1 = experiment: Reporter gene transcription assay pRXRE & Nurr1; assay type: cell-based
Text: as §1

[3] = NDA #21055, cited from earlier work
NBRE & Nurr1 = experiment: Reporter gene transcription assay pNBRE & Nurr1; assay type: cell-based
Text: as §1

[4] = test system: 6-hydroxydopamine (6OHDA) lesions of the substantia nigra pars compacta (SNc); experiment: 6OHDA lesion of the SNc, bexarotene i.c.v. after lesion; assay type: in vivo, Sprague-Dawley rats; settings: for Effective in rat PD model?: i.c.v. 0.006 mg/kg/day (text: 0.00625), 6OHDA lesioning of the substantia nigra
Experimental: Following the 28 days of treatment, animals were assessed in 3 tests of coordinated motor function (spontaneous locomotion, rotorod and challenging beam) and then tissue was collected to assess tyrosine hydroxylase immunofluorescence in the substantia nigra (SNc) and DAT and VMAT2 in the striatum (STR). […] The subjects for these experiments were male Sprague-Dawley rats purchased from Charles Rivers Laboratories (Hollister, Calif.) weighing 200-225 g upon arrival. Rats were housed in pairs in polypropylene cages within a temperature controlled vivarium maintained on a 12 hr light:dark cycle (lights on 7 am). For the duration of the experiments, animals received free access to food and water. All procedures were conducted in accordance with the NIH Guidelines for the Care and Use of Laboratory Animals and were approved by the Institutional Animal Care and Use Committee (IACUC) at […] Pharmaceuticals. Animals were acclimated to vivarium conditions and handling for a minimum of one week prior to surgery. […] After 6OHDA infusions, an Alzet osmotic pump (Durect Corporation, Cupertino, Calif.) attached to an intracranial guide cannula was implanted subcutaneously between the shoulder blades of each animal. The guide was placed intracerebroventricularly (i.c.v., A/P -0.8 mm, M/L -1.4 mm, D/V -4.5 mm relative to bregma) and was attached to the skull with jeweler's screws and dental acrylic and the incision was closed with staples. […] They were then incubated in 0.9% physiological saline at 37° C. until surgically implanted. The pumps infused at a rate of 0.25 μL/hr for 28 days after implantation. […] After completion of the experiment, a subset of the osmotic pumps was removed. The pumps were weighed and aspirated in order to verify compound delivery. […] (Columbus, Ohio). Animals were placed into the chamber for 15 min and their distance traveled (cm) was recorded. Rotorod testing was conducted on a rotating cylinder (70 mm diameter) with knurled tread to aid in gripping. Animals were placed on the cylinder and it was set to rotate at 1 rpm for 15 sec. If animals fell or jumped from the cylinder within 30 sec., they were replaced and the acclimation period restarted. Once animals successfully remained on the cylinder for the acclimation period, the speed of rotation was increased 1 rpm every 15 sec to a maximum of 10 rpm. The time in seconds that animals remained on the cylinder after the acclimation period and the maximum rpm achieved were recorded. […] The challenging beam test was conducted on a 102 cm long bi-level beam made from ABS plastic. The top, narrower beam gradually tapered from 3.5 cm to 0.7 cm, while the bottom, wider beam gradually tapered from 5 cm to 1.8 cm along the length of the beam. The beam was elevated 23 cm above the table. Animals were placed in groups of 4 into a holding tub and received five training trials. On the first training trial animals were placed at the end of the beam and were required to jump into a holding tub. On successive trials, animals were placed 25, 50, 75 and 100 cm from the end of the beam and were required to traverse the beam and jump into the holding tub at the end. Following training, a single test trial was conducted where each animal was placed at the beginning of the beam and the start latency (time required to move all four feet from their starting locations) and run time (time required to traverse the beam after starting) were recorded. […] Similarly, fixed brains were sectioned (50 μm) through the striatum and labeled for the dopamine transporter. […] After immuno labeling sections were mounted and coverslipped using fluorescent antifade mounting medium ([…], Dako USA, Carpinteria, Calif.). Single optical plane images were obtained using an Olympus BX51 Fluorescent microscope (Olympus America Inc., Center Valley, Pa.) equipped with a digital camera (Retina 2000R, Qimaging, Surrey, BC). Images were acquired using a 4× air objective ([…]. 0.13) with 2× digital magnification. […]

[5] = test system: cancer cell lines HN9N and HN21P; settings: cited from earlier work
[6] = human, in vivo
Text: Linear regression was fitted through x=0 and y=0. […] Data taken from Miller et al., J. Clin. Oncol.
Extrapolation of AUC and dose between species.

C=C(c1ccc(C(=O)O)cc1)c1cc2c(cc1C)C(C)(C)CCC2(C)C [Bexarotene, bexarotene]
EC50 [1]: 20 nM | Eff % ([1]; pNBRE, normalized to the response of 9-cis retinoic acid): 28% | improvement of TH measures in the SNc ([2]; 0.3 mg/kg/day orally for 28 days beginning 3 days after lesion): not | normalization of behavior disrupted by lesion ([2]; 0.3 mg/kg/day orally for 28 days beginning 3 days post-lesion): not | TH positive cells, mean pixel intensity, % immunopositive, colocalization of TH and Neurotrace in the SNc ([2]; 1 or 3 mg/kg/day orally for 28 days beginning 3 days after lesion, vs vehicle): significantly improved; also recorded: improved tyrosine hydroxylase expression | behavior disrupted by lesion (challenging beam, rotorod, novel object recognition, head twitches) ([2]; 1 or 3 mg/kg/day orally for 28 days beginning 3 days post-lesion): normalized behavior disrupted by lesion; also recorded: reversed behavioral deficits | Effective PD dose (rat), p.o. ([2]; once daily p.o., 6OHDA lesion model, listed as Targretin): 1 mg/kg/day | Effective in rat PD model? ([2]; p.o. 1 mg/kg/day, 6OHDA lesioning of the substantia nigra, 1 mg/kg/day): effectively reversed behavioral deficits and regenerated neurons and Yes | EC50 (RXRE & Nurr1): 41 nM | Eff % (RXRE & Nurr1; pRXRE & Nurr1, normalized to 9-cis retinoic acid): 65% | plasma AUC ([3]; p.o. 3 mg/kg/day): 4.4 µM·h | plasma AUC ([3]; p.o. 10 mg/kg/day): 14.1 µM·h | plasma AUC ([3]; p.o. 30 mg/kg/day, 30 mg/kg/day): 24.3 μM * hr and 24 μM*hr μM * hr and 24 μM * hr | plasma AUC ([3]; p.o. 100 mg/kg/day, 100 mg/kg/day): 42.1 μM * hr and 42 μM*hr μM * hr and 42 μM * hr | EC50 (NBRE & Nurr1): 17 nM | Eff % (NBRE & Nurr1; pNBRE & Nurr1, normalized to 9-cis retinoic acid): 83% | DAT and VMAT2 immunohistochemistry in the striatum ([4]; 0.006 mg/kg/day i.c.v. beginning 72 hours after 6OHDA lesion): significantly increased all measures; also recorded: improved dopamine transporter and VMAT2 expression | tyrosine hydroxylase immunofluorescence in the SNc ([4]; 0.006 mg/kg/day i.c.v. beginning 72 hours after 6OHDA lesion, vs vehicle): significantly improved cell counts, cell size and mean pixel intensity; also recorded: improved tyrosine hydroxylase expression | motor performance (challenging beam, rotorod, spontaneous locomotion) after 6OHDA ([4]; 0.006 mg/kg/day i.c.v. for 28 days beginning 72 hours after lesion): not impaired relative to Sham controls; also recorded: reversed behavioral deficits | Effective in rat PD model? [4]: effective in reversing the neuronal and behavioral deficits | Effective in rat PD model? ([4]; listed as bexarotene): Yes | Effective PD dose (rat), i.c.v. ([4]; i.c.v. continuous infusion, 6OHDA lesion model): 0.00625 mg/kg/day | tumor growth in nude mice injected with HN9N and HN21P ([5]; 60 mg/kg/day oral, NDA #21055): effective in preventing tumor growth | Effective anti-cancer dose (mice) ([5]; oral, Targretin NDA #21055): 60 mg/kg/day (mice) | slope m1 of AUC versus oral dose in humans [6]: 1.735 | slope m2 of AUC versus oral dose in humans [6]: 2.030
